Laboratory results taken from US5756423A, “Method of controlling plants by inhibition of farnesyl pyrophosphate synthase” (Zeneca Limited, priority 1997, dated 1998).
Read-outs that look alike come from different tables or passages of the source.

Assays:
[1] = tested on: wild oat (Avena fatua) (AVEFA); experiment: post-emergent herbicidal test, wild oat; assay type: in vivo; settings: Avena fatua, post-emergence; post-emergent, 1.0 kg/ha (*), 17-21 days after application; read-out: AVEFA percent control
Procedure, shortened: (§1)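 Read-out is percent control, 0 (growth as untreated) to 100 (complete kill), covering emergence, stunting, malformation and chlorosis, scored 17–21 days post-spray. Application rates were 1 and 4 kg/ha to young greenhouse-grown seedlings.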

[2] = tested on: barnyard grass (Enchinochloa crusgalli) (ECHCG); experiment: post-emergent herbicidal test, barnyard grass; assay type: in vivo; settings: Echinochloa crus-galli, post-emergence, post-emergent, 1.0 kg/ha (*), 17-21 days after application; read-out: ECHCG percent control
Procedure, shortened: as §1

[3] = tested on: farnesyl pyrophosphate synthase in daffodil chromoplasts; experiment: inhibition of farnesyl pyrophosphate synthase in daffodil chromoplasts (14C-isopentenyl pyrophosphate incorporation); assay type: biochemical, Narcissus pseudonarcissus; settings: unit inferred, IC50 values in nM, read-out: IC50
Procedure, shortened: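 Daffodil chromoplasts in pH 7.7 sucrose/MgCl2/HEPES buffer with cysteine, NaF and BSA, started with ~3 micromolar 14C-isopentenyl pyrophosphate, 30 min at 30° C. Butanol-extractable radioactivity counted by scintillation; % residual activity calculated against zero-time and end-point no-inhibitor controls.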

[4] = tested on: green foxtail (Setaria viridis) (SETVI); experiment: post-emergent herbicidal test, green foxtail; assay type: in vivo; settings: Setaria viridis, post-emergence, post-emergent, 1.0 kg/ha (*), 17-21 days after application; read-out: SETVI percent control
Procedure, shortened: as §1

[5] = tested on: yellow nutsedge (Cyperus esculentus) (CYPES); experiment: post-emergent herbicidal test, yellow nutsedge; assay type: in vivo; settings: Cyperus, post-emergence, post-emergent, 1.0 kg/ha (*), 17-21 days after application; read-out: CYPES percent control
Procedure, shortened: as §1

[6] = tested on: velvetleaf (Abutilon theophrasti) (ABUTH); experiment: post-emergent herbicidal test, velvetleaf; assay type: in vivo; settings: Abutilon theophrasti, post-emergence, post-emergent, 1.0 kg/ha (*), 17-21 days after application; read-out: ABUTH percent control
Procedure, shortened: as §1

[7] = tested on: morningglory (Ipomoea spp.) (IPOSS); experiment: post-emergent herbicidal test, morningglory; assay type: in vivo; settings: Ipomoea, post-emergence, post-emergent, 1.0 kg/ha (*), 17-21 days after application; read-out: IPOSS percent control
Procedure, shortened: as §1

[8] = tested on: wild mustard (Brassica kaber), also known as Sinapis arvensis (SINAR); experiment: post-emergent herbicidal test, wild mustard; assay type: in vivo; settings: Brassica, post-emergence, post-emergent, 1.0 kg/ha (*), 17-21 days after application; read-out: SINAR percent control
Procedure, shortened: as §1

IC50 ([3]; Table I) [nM] | IC50 ([3]; Table II) [nM] | Structure (SMILES) | pest or weed control at 1000 g/ha [1] [%] | pest or weed control at 1000 g/ha [2] [%] | pest or weed control at 1000 g/ha [4] [%] | pest or weed control at 1000 g/ha [5] [%] | pest or weed control at 1000 g/ha [6] [%] | pest or weed control at 1000 g/ha [7] [%] | pest or weed control at 1000 g/ha [8] [%]
186 | 186 | CCCCCN(CCC)CC(P(=O)(O)O)P(=O)(O)O [Compound 62] | 100 | 85 | 95 | 10 | 15 | 30 | 85
50 | 50 | O=P(O)(O)C(CN1C=NCCC1)P(=O)(O)O [Compound 65] | 95 | 100 | 100 | 5 | 100 | 100 | 100
– | 58 | CC(O)CNCC(P(=O)(O)O)P(=O)(O)O (centres unmarked) [Compound 66] | 90 | 95 | 98 | 60 | 90 | 75 | 100
